Molecules are shown by their SMILES.

The results in this text go back to patent publication US4470840A, “1-Triacontanol plant growth stimulator formulations” (Biochemical Research Corporation, priority 1981, dated 1984).

The test system of test [1] is Hybrid Sweet Corn Seedlings (cv. Silver Queen). Nature of the test: Lengths of stems and total plant length of seedlings sprayed Day 7. The note with it: T = 1-triacontanol 0.1 mg/liter; for Length "a" (stem to the first leaf): control 11.5 cm; for Length "b" (total plant length): control 25.0 cm. In kind it is in vivo.
The test system is the same in test [2]. Nature of the test: Greenhouse trial: dry weight and water uptake of seedlings after foliar spraying. The format is in vivo. How it is done:
In general, greenhouse trials were conducted as follows: eight to twelve seeds were sown per pot in Peat-Lite® Mix and received an average of 100 ml of water per day. After plants had the third true leaf (average), the various formulations were applied to the leaves as a fine mist at air temperatures listed in Table 1. Temperatures above 20° C., preferably 25°-30° C., are preferred.
The 1-triacontanol formulation most generally used consisted of a concentrate containing 5 mg of 1-triacontanol dissolved in 1 liter of acetone, with 20 ml of the concentrate being further dissolved to 1 liter with water having a pH between 8 and 10, with over a pH of 11 also being effective. The pH was adjusted with aqueous NaOH and the concentrate added just prior to spraying.
When other plant growth substances were added to the formulations, these were added either to the concentrate in the polar organic solvent or alternatively in the aqueous solution, depending on the solubility of the plant growth substance. All metal salts were added to the water used to spray the 1-triacontanol formulations. After spraying, preferably about four to nine days or more, plants were harvested with roots, and fresh weights were obtained. Plants were then dried in an oven, preferably at a temperature below 100° C., until constant weight was obtained, and dry weight values were obtained for each plot. Subtraction of the dry weights from the fresh weights gave the water uptake weights (water content) of each plot. The weights of the above mentioned seedlings were compared to the control weights to obtain the percent increases.
It is particularly advantageous to arrange each of the potted plants in size range categories corresponding to the number of replications used. For example, if five replications are employed, plants are divided into five size categories, normally measured by the height of the plants. Treatments are then assigned randomly within each block (size category). This removes the variation due to plant size for statistical purposes, as is well practiced in the art. The resulting data is analyzed using any appropriate means, which may include the least significant difference method (L.S.D. method), Duncan's multiple range test, as used here (Biometrics, 11: 1 (1955)), or other means.

Setting [3] is: 14-day old seedlings, plant growth substance 0.01 mM, with 1-triacontanol 0.1 mg/liter.
The mark [4] stands for this setting: 14-day old seedlings, plant growth substance 0.01 mM, without 1-triacontanol.
Where [5] appears, read: plant growth substance 0.001 mM, CaCl2 50 mM, 1-triacontanol 0.5 mg per liter, pH 8.
[6] abbreviates: plant growth substance 0.01 mM, CaCl2 50 mM, 1-triacontanol 0.5 mg per liter, pH 8.
Where [7] appears, read: plant growth substance 0.10 mM, CaCl2 50 mM, 1-triacontanol 0.5 mg per liter, pH 8.
Setting [8] is: plant growth substance 0.01 mM, CaCl2 10 mM, 1-triacontanol 0.5 mg per liter, pH 8.

With `O=C(O)Cc1c[nH]c2ccccc12` [IAA, indole-3-acetic acid, reference compound], in test [1], the “Increase in length "a"” value is given as 0%, the “Increase in length "b"” value is reported as -2%, the “Length "a" (stem to the first leaf)” value is 11.6 cm and the “Length "b" (total plant length)” value was found to be 24.4 cm. In test [2] (setting [3]), the “Increases, H2O uptake” value is -5% and the “Increases, dry wt.” value is reported as “+2%”. Also, in test [2] (setting [4]), the “Increases, H2O uptake” value was -7% and the “Increases, dry wt.” value is given as “+4%”. Also, in test [2] (setting [5]), the “Increases, H2O uptake” value is reported as “+18%” and the “Increases, dry wt.” value is reported as “+37%”. Besides, in test [2] (setting [6]), the “Increases, H2O uptake” value was “+25%” and the “Increases, dry wt.” value is given as “+56%”. Besides, in test [2] (setting [7]), the “Increases, H2O uptake” value is “+14%” and the “Increases, dry wt.” value is reported as “+36%”.
With `c1coc(CNc2ncnc3nc[nH]c23)c1` [Kinetin, 6-furfurylamino purine, reference compound], in test [1], the “Increase in length "a"” value is 0%, the “Increase in length "b"” value is reported as “+30%”, the “Length "a" (stem to the first leaf)” value is on record as 11.5 cm and the “Length "b" (total plant length)” value is reported as 32.5 cm. Further, in test [2] (setting [3]), the “Increases, H2O uptake” value is given as “+14%” and the “Increases, dry wt.” value is -21%. Further, in test [2] (setting [4]), the “Increases, H2O uptake” value is -3% and the “Increases, dry wt.” value is recorded as -24%. In test [2] (setting [8]), the “Increases, H2O uptake” value is listed as “+13%” and the “Increases, dry wt.” value was “+3%”. For the same molecule, in test [2] (setting [6]), the “Increases, H2O uptake” value is given as -2% and the “Increases, dry wt.” value was “+1%”.
